From patent US20260007599A1, “TICAGRELOR IV FORMULATIONS FOR USE IN THE TREATMENT OF GRAM-POSITIVE BACTEREMIA” (Hyloris Developments SA, priority 2023, published 2026)

Columns and labels:
Format in all cases: physicochemical
[1] = Dilution of a concentrated ticagrelor vial (8 ml, 65 mg ticagrelor, about 3 g HPβCD)
[2] = 3 months stability study at pH 7, 7.5 and 8 in amber glass vials; parameters: Assay: unit not given here; details: for Acetal impurity / Amine impurity / Assay / Description / Regiomer / Sum impurities >0.05 / Total (impurity) / Triol impurity / pH: amber vials, HPβCD 40% w/w
Protocol: To optimize the HPβCD concentration and the pH of the solution for intravenous use, a 12 week/3 months stability study was conducted. […] Its stability was tested at regular intervals.
A comparison of stability profile at 3 different pH-7, 7.5 and 8—was carried out as below, the manufacturing process for all 3 formulations was kept constant with buffer strength at 19 mM.

[3] = Storage stability of Example 14 aqueous ticagrelor solutions; details: 5-15 mg/ml ticagrelor, 20-40% w/w HPβCD; 40° C. and 75% Relative Humidity
Protocol: Aqueous ticagrelor solutions for intravenous administration were prepared with the following composition: • 5-15 mg/ml Ticagrelor • 20-40% w/w HPβCD • Q·S to 1 ml Acetate or Phosphate Buffer pH 4.5 to 6.5 • pH solution: 6-8 • Osmolality solution: 350-900 mOsm/kg
Packaged in a glass vial, containing 5-15 ml aqueous ticagrelor solution.
Storage stability: at least 3 months at 40° C. and 75% Relative Humidity

[4] = 19 mM pH 7 phosphate buffer, 1 M
[5] = 19 mM pH 7 phosphate buffer, 2 M
[6] = 19 mM pH 7 phosphate buffer, 3 M
[7] = 19 mM pH 7 phosphate buffer, T0
[8] = 19 mM pH 7.5 phosphate buffer, 1 M
[9] = 19 mM pH 7.5 phosphate buffer, 2 M
[10] = 19 mM pH 7.5 phosphate buffer, 3 M
[11] = 19 mM pH 7.5 phosphate buffer, T0
[12] = 19 mM pH 8 phosphate buffer, 1 M
[13] = 19 mM pH 8 phosphate buffer, 2 M
[14] = 19 mM pH 8 phosphate buffer, 3 M
[15] = 19 mM pH 8 phosphate buffer, T0

CCCSc1nc(N[C@@H]2C[C@H]2c2ccc(F)c(F)c2)c2nnn([C@@H]3C[C@H](OCCO)[C@@H](O)[C@H]3O)c2n1 [ticagrelor, (1S,2S,3R,5S)-3-{7-[(1R,2S)-2-(3,4-difluorophenyl)cyclopropylamino]5-(propylthio)-3H-(1,2,3)triazolo (4,5-D)pyrimidin-3-yl}-5-(2 hydroxyethoxy) cyclopentane-1,2-diol]
clear solution on dilution ([1]; 0,9 w/v % NaCl solution as diluent): not possible
appearance after dilution ([1]; diluted with 25 ml 5 w/v % dextrose, final volume 33 ml): clear solution
Acetal impurity [2, 4]: 0.05%
Amine impurity [2, 4]: 0.04%
Assay [2, 4]: 99.73
Description [2, 4]: clear
Regiomer [2, 4]: 0.03%
Sum impurities >0.05 [2, 4]: 0.05%
Total (impurity) [2, 4]: 0.27%
Triol impurity [2, 4]: 0.02%
pH [2, 4]: 7.34
Acetal impurity [2, 5]: 0.05%
Amine impurity [2, 5]: 0.04%
Assay [2, 5]: 99.81
Description [2, 5]: clear
Regiomer [2, 5]: 0.06%
Sum impurities >0.05 [2, 5]: 0.11%
Total (impurity) [2, 5]: 0.34%
Triol impurity [2, 5]: 0.04%
pH [2, 5]: 7.34
Acetal impurity [2, 6]: 0.05%
Amine impurity [2, 6]: 0.06%
Assay [2, 6]: 98.51
Description [2, 6]: clear
Regiomer [2, 6]: 0.11%
Sum impurities >0.05 [2, 6]: 0.22%
Total (impurity) [2, 6]: 0.40%
Triol impurity [2, 6]: 0.04%
pH [2, 6]: 7.30
Acetal impurity [2, 7]: 0.05%
Amine impurity [2, 7]: 0.04%
Assay [2, 7]: 98.95
Description [2, 7]: clear
Regiomer [2, 7]: 0.00%
Sum impurities >0.05 [2, 7]: 0.22%
Total (impurity) [2, 7]: 0.41%
Triol impurity [2, 7]: 0.05%
pH [2, 7]: 7.33
Acetal impurity [2, 8]: 0.05%
Amine impurity [2, 8]: 0.05%
Assay [2, 8]: 104.47
Description [2, 8]: clear
Regiomer [2, 8]: 0.01%
Sum impurities >0.05 [2, 8]: 0.14%
Total (impurity) [2, 8]: 0.32%
Triol impurity [2, 8]: 0.05%
pH [2, 8]: 7.50
Acetal impurity [2, 9]: 0.05%
Amine impurity [2, 9]: 0.05%
Assay [2, 9]: 102.59
Description [2, 9]: clear
Regiomer [2, 9]: 0.04%
Sum impurities >0.05 [2, 9]: 0.15%
Total (impurity) [2, 9]: 0.29%
Triol impurity [2, 9]: 0.05%
pH [2, 9]: 7.48
Acetal impurity [2, 10]: 0.05%
Amine impurity [2, 10]: 0.05%
Assay [2, 10]: 102.31
Description [2, 10]: clear
Regiomer [2, 10]: 0.08%
Sum impurities >0.05 [2, 10]: 0.23%
Total (impurity) [2, 10]: 0.41%
Triol impurity [2, 10]: 0.04%
pH [2, 10]: 7.55
Acetal impurity [2, 11]: 0.05%
Amine impurity [2, 11]: 0.04%
Assay [2, 11]: 104.27
Description [2, 11]: clear
Regiomer [2, 11]: 0.00%
Sum impurities >0.05 [2, 11]: 0.11%
Total (impurity) [2, 11]: 0.31%
Triol impurity [2, 11]: 0.04%
pH [2, 11]: 7.40
Acetal impurity [2, 12]: 0.05%
Amine impurity [2, 12]: 0.05%
Assay [2, 12]: 105.88
Description [2, 12]: clear
Regiomer [2, 12]: 0.01%
Sum impurities >0.05 [2, 12]: 0.09%
Total (impurity) [2, 12]: 0.26%
Triol impurity [2, 12]: 0.03%
pH [2, 12]: 8.10
Acetal impurity [2, 13]: 0.05%
Amine impurity [2, 13]: 0.05%
Assay [2, 13]: 105.46
Description [2, 13]: clear
Regiomer [2, 13]: 0.03%
Sum impurities >0.05 [2, 13]: 0.15%
Total (impurity) [2, 13]: 0.32%
Triol impurity [2, 13]: 0.05%
pH [2, 13]: 8.04
Acetal impurity [2, 14]: 0.05%
Amine impurity [2, 14]: 0.07%
Assay [2, 14]: 104.46
Description [2, 14]: clear
Regiomer [2, 14]: 0.06%
Sum impurities >0.05 [2, 14]: 0.23%
Total (impurity) [2, 14]: 0.37%
Triol impurity [2, 14]: 0.05%
pH [2, 14]: 8.03
Acetal impurity [2, 15]: 0.05%
Amine impurity [2, 15]: 0.04%
Assay [2, 15]: 103.25
Description [2, 15]: clear
Regiomer [2, 15]: 0.00%
Sum impurities >0.05 [2, 15]: 0.25%
Total (impurity) [2, 15]: 0.43%
Triol impurity [2, 15]: 0.06%
pH [2, 15]: 8.07
stability of ticagrelor solution in HPβCD (conclusion) ([2]; pH range of 7 to 8): stable
Storage stability [3]: at least 3 months
